How the values were obtained:
PLK2 = target: T1, PLK2 (Homo sapiens, UniProt Q9NYY3); assay: HotSpot kinase assay; format: biochemical; conditions: read-out: % Enzyme Activity (relative to DMSO controls)
T1 construct: purchased Reaction Biology Corporation

RIPK5 = target: T2, RIPK5 (Homo sapiens, UniProt Q6XUX3); assay: HotSpot kinase assay; format: biochemical; conditions: read-out: % Enzyme Activity (relative to DMSO controls)
T2 construct: purchased Reaction Biology Corporation

BRK = target: T3, BRK (Homo sapiens, UniProt Q13882); assay: HotSpot kinase assay; format: biochemical; conditions: read-out: % Enzyme Activity (relative to DMSO controls)
T3 construct: purchased Reaction Biology Corporation

MYO3b = target: T4, MYO3b (Homo sapiens, UniProt Q8WXR4); assay: HotSpot kinase assay; format: biochemical; conditions: read-out: % Enzyme Activity (relative to DMSO controls)
T4 construct: purchased Reaction Biology Corporation

ERK5/MAPK7 = target: T5, ERK5/MAPK7 (Homo sapiens, UniProt Q13164); assay: HotSpot kinase assay; format: biochemical; conditions: read-out: % Enzyme Activity (relative to DMSO controls)
T5 construct: purchased Reaction Biology Corporation

TRKB = target: T6, TRKB (Homo sapiens, UniProt Q16620); assay: HotSpot kinase assay; format: biochemical; conditions: read-out: % Enzyme Activity (relative to DMSO controls)
T6 construct: purchased Reaction Biology Corporation

Aurora B = target: T7, Aurora B (Homo sapiens, UniProt Q96GD4); assay: HotSpot kinase assay; format: biochemical; conditions: read-out: % Enzyme Activity (relative to DMSO controls)
T7 construct: purchased Reaction Biology Corporation

NEK2 = target: T8, NEK2 (Homo sapiens, UniProt P51955); assay: HotSpot kinase assay; format: biochemical; conditions: read-out: % Enzyme Activity (relative to DMSO controls)
T8 construct: purchased Reaction Biology Corporation

DCAMKL2 = target: T9, DCAMKL2 (Homo sapiens, UniProt Q8N568); assay: HotSpot kinase assay; format: biochemical; conditions: read-out: % Enzyme Activity (relative to DMSO controls)
T9 construct: purchased Reaction Biology Corporation

ALK = target: T10, ALK (Homo sapiens, UniProt Q9UM73); assay: HotSpot kinase assay; format: biochemical; conditions: read-out: % Enzyme Activity (relative to DMSO controls)
T10 construct: purchased Reaction Biology Corporation

AURORA C = target: T11, AURORA C (Homo sapiens, UniProt Q9UQB9); assay: HotSpot kinase assay; format: biochemical; conditions: read-out: % Enzyme Activity (relative to DMSO controls)
T11 construct: purchased Reaction Biology Corporation

[1] = system: Akt (pAkt T308) in HaCat cells; assay: Akt phosphorylation in response to insulin (confocal); format: cell-based, human; conditions: insulin 10 μM, CIMSS 10 or 100 µM
MAPKAPK2 = target: T12, MAPKAPK2 (Homo sapiens, UniProt P49137); assay: HotSpot kinase assay; format: biochemical; conditions: read-out: % Enzyme Activity (relative to DMSO controls)
T12 construct: purchased Reaction Biology Corporation

FGFR2 = target: T13, FGFR2 (Homo sapiens, UniProt P21802); assay: HotSpot kinase assay; format: biochemical; conditions: read-out: % Enzyme Activity (relative to DMSO controls)
T13 construct: purchased Reaction Biology Corporation

TBK1 = target: T14, TBK1 (Homo sapiens, UniProt Q9UHD2); assay: HotSpot kinase assay; format: biochemical; conditions: read-out: % Enzyme Activity (relative to DMSO controls)
T14 construct: purchased Reaction Biology Corporation

CDK9/cyclin T2 = target: T15, CDK9/cyclin T2 (Homo sapiens, UniProt P50750); assay: HotSpot kinase assay; format: biochemical; conditions: read-out: % Enzyme Activity (relative to DMSO controls)
T15 construct: purchased Reaction Biology Corporation

CDK16/cyclin Y (PCTAIRE) = target: T16, CDK16/cyclin Y (PCTAIRE) (Homo sapiens, UniProt Q00536); assay: HotSpot kinase assay; format: biochemical; conditions: read-out: % Enzyme Activity (relative to DMSO controls)
T16 construct: purchased Reaction Biology Corporation

PLSCR1 = format: cell-based, monkey; conditions: 30 min; drugs 10 μM, immunoglobulins 10 μg/ml
ACK1 = target: T17, ACK1 (Homo sapiens, UniProt Q07912); assay: HotSpot kinase assay; format: biochemical; conditions: read-out: % Enzyme Activity (relative to DMSO controls)
T17 construct: purchased Reaction Biology Corporation

SARS-CoV-2 (WA1/2020) = assay: SARS-CoV-2 infection of Huh-7.5 cells (nucleocapsid staining); conditions: 24 and 72 h
MEKK2 = target: T18, MEKK2 (Homo sapiens, UniProt Q9Y2U5); assay: HotSpot kinase assay; format: biochemical; conditions: read-out: % Enzyme Activity (relative to DMSO controls)
T18 construct: purchased Reaction Biology Corporation

WNK2 = target: T19, WNK2 (Homo sapiens, UniProt Q9Y3S1); assay: HotSpot kinase assay; format: biochemical; conditions: read-out: % Enzyme Activity (relative to DMSO controls)
T19 construct: purchased Reaction Biology Corporation

FAK/PTK2 = target: T20, FAK/PTK2 (Homo sapiens, UniProt Q05397); assay: HotSpot kinase assay; format: biochemical; conditions: read-out: % Enzyme Activity (relative to DMSO controls)
T20 construct: purchased Reaction Biology Corporation

CDK2/CYCLIN E = target: T21, CDK2/CYCLIN E (Homo sapiens, UniProt P24941); assay: HotSpot kinase assay; format: biochemical; conditions: read-out: % Enzyme Activity (relative to DMSO controls)
T21 construct: purchased Reaction Biology Corporation

CDK2/cyclin A = target: T22, CDK2/cyclin A (Homo sapiens, UniProt P24941); assay: HotSpot kinase assay; format: biochemical; conditions: read-out: % Enzyme Activity (relative to DMSO controls)
T22 construct: purchased Reaction Biology Corporation

DNA-PK = target: T23, DNA-PK (Homo sapiens, UniProt P78527); assay: HotSpot kinase assay; format: biochemical; conditions: read-out: % Enzyme Activity (relative to DMSO controls)
T23 construct: purchased Reaction Biology Corporation

AKT3 = target: T24, AKT3 (Homo sapiens, UniProt Q9Y243); assay: biochemical
T24 construct: purchased Reaction Biology Corporation

DMPK = target: T25, DMPK (Homo sapiens, UniProt Q09013); assay: HotSpot kinase assay; format: biochemical; conditions: read-out: % Enzyme Activity (relative to DMSO controls)
T25 construct: purchased Reaction Biology Corporation

MLCK2/MYLK2 = target: T26, MLCK2/MYLK2 (Homo sapiens, UniProt Q9H1R3); assay: HotSpot kinase assay; format: biochemical; conditions: read-out: % Enzyme Activity (relative to DMSO controls)
T26 construct: purchased Reaction Biology Corporation

CDK1/cyclin A = target: T27, CDK1/cyclin A (Homo sapiens, UniProt P06493); assay: HotSpot kinase assay; format: biochemical; conditions: read-out: % Enzyme Activity (relative to DMSO controls)
T27 construct: purchased Reaction Biology Corporation

TAOK2/TAO1 = target: T28, TAOK2/TAO1 (Homo sapiens, UniProt Q9UL54); assay: HotSpot kinase assay; format: biochemical; conditions: read-out: % Enzyme Activity (relative to DMSO controls)
T28 construct: purchased Reaction Biology Corporation

BTK = target: T29, BTK (Homo sapiens, UniProt Q06187); assay: HotSpot kinase assay; format: biochemical; conditions: read-out: % Enzyme Activity (relative to DMSO controls)
T29 construct: purchased Reaction Biology Corporation

AKT2 = target: T30, AKT2 (Homo sapiens, UniProt P31751); assay: biochemical
T30 construct: purchased Reaction Biology Corporation

in vitro = conditions: human, Huh-7.5 cells infected with SARS-CoV-2
FER = target: T31, FER (Homo sapiens, UniProt P16591); assay: HotSpot kinase assay; format: biochemical; conditions: read-out: % Enzyme Activity (relative to DMSO controls)
T31 construct: purchased Reaction Biology Corporation

AKT1 = target: T32, AKT1 (Homo sapiens, UniProt P31749); assay: biochemical
T32 construct: purchased Reaction Biology Corporation

P38d/MAPK13 = target: T33, P38d/MAPK13 (Homo sapiens, UniProt O15264); assay: HotSpot kinase assay; format: biochemical; conditions: read-out: % Enzyme Activity (relative to DMSO controls)
T33 construct: purchased Reaction Biology Corporation

FES/FPS = target: T34, FES/FPS (Homo sapiens, UniProt P07332); assay: HotSpot kinase assay; format: biochemical; conditions: read-out: % Enzyme Activity (relative to DMSO controls)
T34 construct: purchased Reaction Biology Corporation

LIMK2 = target: T35, LIMK2 (Homo sapiens, UniProt P53671); assay: HotSpot kinase assay; format: biochemical; conditions: read-out: % Enzyme Activity (relative to DMSO controls)
T35 construct: purchased Reaction Biology Corporation

[2] = Supplementary Table 1, read-out: IC50 (Molar concentration)
[3] = read-out: % Enzyme Activity (relative to DMSO controls), 10µM

T30 sequence (P31751 whole entry): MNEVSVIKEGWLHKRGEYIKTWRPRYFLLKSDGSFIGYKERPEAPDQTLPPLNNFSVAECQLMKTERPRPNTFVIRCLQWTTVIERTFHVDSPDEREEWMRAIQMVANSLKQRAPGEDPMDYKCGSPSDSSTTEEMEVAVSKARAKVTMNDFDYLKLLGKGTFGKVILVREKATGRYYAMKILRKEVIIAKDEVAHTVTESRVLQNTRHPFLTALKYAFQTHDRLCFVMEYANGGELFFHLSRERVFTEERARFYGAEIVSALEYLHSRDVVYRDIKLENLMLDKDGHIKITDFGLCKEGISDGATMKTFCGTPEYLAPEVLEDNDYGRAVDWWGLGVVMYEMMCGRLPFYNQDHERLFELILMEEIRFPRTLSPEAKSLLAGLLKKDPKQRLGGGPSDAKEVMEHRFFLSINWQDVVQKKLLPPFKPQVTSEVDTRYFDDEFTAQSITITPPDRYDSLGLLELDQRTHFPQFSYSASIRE
T24 sequence (Q9Y243 whole entry): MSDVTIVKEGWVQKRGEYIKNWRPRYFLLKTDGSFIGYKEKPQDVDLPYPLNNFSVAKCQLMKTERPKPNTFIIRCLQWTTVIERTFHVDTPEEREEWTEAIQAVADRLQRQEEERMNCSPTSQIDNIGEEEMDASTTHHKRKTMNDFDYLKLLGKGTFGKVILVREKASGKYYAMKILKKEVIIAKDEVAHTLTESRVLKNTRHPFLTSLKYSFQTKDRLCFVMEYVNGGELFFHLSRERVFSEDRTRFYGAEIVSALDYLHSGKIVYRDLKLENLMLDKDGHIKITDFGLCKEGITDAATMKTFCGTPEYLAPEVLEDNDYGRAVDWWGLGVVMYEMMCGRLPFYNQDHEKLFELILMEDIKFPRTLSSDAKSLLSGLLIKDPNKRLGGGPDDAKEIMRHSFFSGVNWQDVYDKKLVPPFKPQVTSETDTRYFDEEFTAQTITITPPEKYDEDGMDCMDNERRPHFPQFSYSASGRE
T32 sequence (P31749 whole entry): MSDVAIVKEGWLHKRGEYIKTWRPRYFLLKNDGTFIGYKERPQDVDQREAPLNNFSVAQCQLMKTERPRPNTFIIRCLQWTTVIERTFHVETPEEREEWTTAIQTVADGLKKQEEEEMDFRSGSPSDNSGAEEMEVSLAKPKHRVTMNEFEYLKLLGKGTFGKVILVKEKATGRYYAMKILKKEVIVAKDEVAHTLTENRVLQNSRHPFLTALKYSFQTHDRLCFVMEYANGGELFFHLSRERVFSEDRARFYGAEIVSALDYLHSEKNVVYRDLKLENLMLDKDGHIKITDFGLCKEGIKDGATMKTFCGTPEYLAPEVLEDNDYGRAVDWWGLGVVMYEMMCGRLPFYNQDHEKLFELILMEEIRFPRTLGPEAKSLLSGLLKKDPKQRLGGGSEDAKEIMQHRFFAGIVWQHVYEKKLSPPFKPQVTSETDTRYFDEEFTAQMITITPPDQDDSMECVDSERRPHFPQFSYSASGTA
T17 sequence (Q07912 whole entry): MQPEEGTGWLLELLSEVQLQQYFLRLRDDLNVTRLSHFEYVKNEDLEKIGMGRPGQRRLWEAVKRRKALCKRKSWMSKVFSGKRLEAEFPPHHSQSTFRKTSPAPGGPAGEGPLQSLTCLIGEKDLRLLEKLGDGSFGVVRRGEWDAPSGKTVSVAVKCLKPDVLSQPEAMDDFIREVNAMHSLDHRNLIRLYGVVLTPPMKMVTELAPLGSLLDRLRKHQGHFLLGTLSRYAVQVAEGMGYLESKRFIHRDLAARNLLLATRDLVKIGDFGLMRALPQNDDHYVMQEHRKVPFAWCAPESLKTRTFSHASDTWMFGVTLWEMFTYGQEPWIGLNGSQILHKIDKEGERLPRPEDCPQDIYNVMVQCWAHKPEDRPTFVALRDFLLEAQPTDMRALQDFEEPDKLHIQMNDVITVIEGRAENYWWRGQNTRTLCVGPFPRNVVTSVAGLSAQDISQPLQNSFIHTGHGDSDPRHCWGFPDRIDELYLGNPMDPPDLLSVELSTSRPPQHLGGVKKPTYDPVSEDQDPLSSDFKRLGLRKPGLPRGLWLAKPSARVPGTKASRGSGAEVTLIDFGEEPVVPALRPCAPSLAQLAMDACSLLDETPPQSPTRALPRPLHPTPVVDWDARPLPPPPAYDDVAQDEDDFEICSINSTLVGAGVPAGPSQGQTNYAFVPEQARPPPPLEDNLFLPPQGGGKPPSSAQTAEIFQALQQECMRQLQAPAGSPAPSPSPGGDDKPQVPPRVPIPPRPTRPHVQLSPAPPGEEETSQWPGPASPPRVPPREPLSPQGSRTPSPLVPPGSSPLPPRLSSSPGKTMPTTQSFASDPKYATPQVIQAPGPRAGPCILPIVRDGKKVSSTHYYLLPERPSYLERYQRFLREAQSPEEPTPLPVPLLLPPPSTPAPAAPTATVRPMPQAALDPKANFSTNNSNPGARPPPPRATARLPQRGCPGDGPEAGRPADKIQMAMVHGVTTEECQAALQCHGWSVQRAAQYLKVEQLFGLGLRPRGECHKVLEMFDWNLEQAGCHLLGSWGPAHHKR
T3 sequence (Q13882 whole entry): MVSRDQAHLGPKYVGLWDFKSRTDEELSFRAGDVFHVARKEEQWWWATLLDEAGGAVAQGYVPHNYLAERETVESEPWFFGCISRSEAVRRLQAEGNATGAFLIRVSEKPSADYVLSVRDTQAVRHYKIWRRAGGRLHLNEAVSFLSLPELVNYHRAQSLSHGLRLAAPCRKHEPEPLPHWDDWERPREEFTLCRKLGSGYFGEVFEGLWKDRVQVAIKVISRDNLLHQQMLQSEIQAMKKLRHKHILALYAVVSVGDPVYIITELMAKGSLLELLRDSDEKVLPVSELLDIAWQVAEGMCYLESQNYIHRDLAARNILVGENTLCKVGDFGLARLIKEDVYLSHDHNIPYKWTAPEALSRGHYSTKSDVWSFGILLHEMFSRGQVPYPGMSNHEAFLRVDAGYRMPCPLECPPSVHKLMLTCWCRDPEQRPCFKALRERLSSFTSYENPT
T16 sequence (Q00536 whole entry): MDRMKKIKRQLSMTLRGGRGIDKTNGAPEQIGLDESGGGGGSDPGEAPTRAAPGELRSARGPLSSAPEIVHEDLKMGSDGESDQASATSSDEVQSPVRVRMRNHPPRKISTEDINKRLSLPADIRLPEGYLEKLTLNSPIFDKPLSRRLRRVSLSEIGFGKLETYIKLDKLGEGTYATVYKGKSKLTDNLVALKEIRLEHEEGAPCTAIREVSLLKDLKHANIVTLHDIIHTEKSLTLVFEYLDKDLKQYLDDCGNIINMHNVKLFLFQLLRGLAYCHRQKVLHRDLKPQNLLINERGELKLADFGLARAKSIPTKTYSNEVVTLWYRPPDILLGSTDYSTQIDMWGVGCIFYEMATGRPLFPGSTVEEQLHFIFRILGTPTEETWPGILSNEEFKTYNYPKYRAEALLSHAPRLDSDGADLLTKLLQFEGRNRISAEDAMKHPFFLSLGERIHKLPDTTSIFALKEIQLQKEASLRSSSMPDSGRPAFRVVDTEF
T16 sequence (Q8ND76 whole entry partner): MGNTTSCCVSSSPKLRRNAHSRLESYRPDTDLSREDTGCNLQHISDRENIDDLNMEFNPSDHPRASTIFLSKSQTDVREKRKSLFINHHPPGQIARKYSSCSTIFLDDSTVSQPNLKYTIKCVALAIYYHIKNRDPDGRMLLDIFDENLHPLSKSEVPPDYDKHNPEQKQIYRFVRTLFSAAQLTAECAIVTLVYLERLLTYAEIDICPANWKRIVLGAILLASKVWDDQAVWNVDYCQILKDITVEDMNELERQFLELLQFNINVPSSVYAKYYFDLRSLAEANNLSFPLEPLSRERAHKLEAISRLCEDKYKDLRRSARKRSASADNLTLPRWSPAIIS
T28 sequence (Q9UL54 whole entry): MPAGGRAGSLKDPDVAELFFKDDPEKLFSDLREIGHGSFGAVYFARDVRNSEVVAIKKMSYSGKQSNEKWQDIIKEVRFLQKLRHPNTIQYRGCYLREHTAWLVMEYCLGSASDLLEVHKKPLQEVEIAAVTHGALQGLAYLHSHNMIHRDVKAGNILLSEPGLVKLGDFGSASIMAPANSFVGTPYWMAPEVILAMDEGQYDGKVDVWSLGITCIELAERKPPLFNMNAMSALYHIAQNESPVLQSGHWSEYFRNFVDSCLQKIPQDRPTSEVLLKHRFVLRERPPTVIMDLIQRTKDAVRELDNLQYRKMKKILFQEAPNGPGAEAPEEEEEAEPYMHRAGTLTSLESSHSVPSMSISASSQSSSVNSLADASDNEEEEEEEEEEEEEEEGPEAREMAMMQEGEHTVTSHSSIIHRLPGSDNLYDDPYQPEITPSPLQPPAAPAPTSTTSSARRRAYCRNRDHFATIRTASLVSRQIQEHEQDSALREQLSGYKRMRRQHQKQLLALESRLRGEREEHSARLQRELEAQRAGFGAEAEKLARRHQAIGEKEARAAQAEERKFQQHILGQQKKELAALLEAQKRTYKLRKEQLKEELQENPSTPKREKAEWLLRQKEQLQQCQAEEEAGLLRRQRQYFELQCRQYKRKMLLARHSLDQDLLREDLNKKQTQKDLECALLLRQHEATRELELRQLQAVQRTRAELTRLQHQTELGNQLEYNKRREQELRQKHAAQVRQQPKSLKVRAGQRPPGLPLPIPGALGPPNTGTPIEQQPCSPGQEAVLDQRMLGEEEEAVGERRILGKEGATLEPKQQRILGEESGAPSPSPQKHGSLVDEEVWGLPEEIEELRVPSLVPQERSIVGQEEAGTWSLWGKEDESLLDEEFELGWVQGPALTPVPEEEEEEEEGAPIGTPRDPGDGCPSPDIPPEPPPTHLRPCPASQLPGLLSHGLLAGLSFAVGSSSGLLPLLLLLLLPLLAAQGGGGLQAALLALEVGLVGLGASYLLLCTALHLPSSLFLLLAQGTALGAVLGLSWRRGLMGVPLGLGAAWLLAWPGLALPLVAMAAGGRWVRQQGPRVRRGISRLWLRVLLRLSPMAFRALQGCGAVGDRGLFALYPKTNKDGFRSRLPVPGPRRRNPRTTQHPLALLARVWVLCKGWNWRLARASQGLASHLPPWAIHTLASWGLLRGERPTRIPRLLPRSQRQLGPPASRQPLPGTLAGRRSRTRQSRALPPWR

Molecule CO[C@@H]1[C@H](N(C)C(=O)CCC(=O)NCc2cn(CCCS(=O)(=O)O)nn2)C[C@H]2O[C@]1(C)n1c3ccccc3c3c4c(c5c6ccccc6n2c5c31)C(=O)NC4 [CIMSS] has a remaining activity at 10 µM (PLK2) of 27.4%, a remaining activity at 10 µM (RIPK5) of 22.7% and a remaining activity at 10 µM (BRK) of 25.5%. The remaining activity at 10 µM (MYO3b) was 4.81%, the remaining activity at 10 µM (ERK5/MAPK7) was 84.5% and the remaining activity at 10 µM (TRKB) was 1.79%. The remaining activity at 10 µM (Aurora B) was 2.85%, the remaining activity at 10 µM (NEK2) was 18.8% and the remaining activity at 10 µM (DCAMKL2) was 87.7%. The remaining activity at 10 µM (ALK) was 4.12%, the remaining activity at 10 µM (AURORA C) was 2.59% and the “block of Akt phosphorylation in response to insulin” value [1] was “did not block”. For the same molecule, the remaining activity at 10 µM (MAPKAPK2) was 69.9%, the remaining activity at 10 µM (FGFR2) was 2.58% and the remaining activity at 10 µM (TBK1) was 2.01%. The remaining activity at 10 µM (CDK9/cyclin T2) was 8.55%, the remaining activity at 10 µM (CDK16/cyclin Y (PCTAIRE)) was 76.6% and the “Phosphorylation of PLSCR1” value (PLSCR1) was “preserved”. For the same molecule, the remaining activity at 10 µM (ACK1) was 7.33%, the “authentic SARS-CoV-2 (WA1/2020) infection” value (SARS-CoV-2 (WA1/2020)) was “inhibitory activity” and the remaining activity at 10 µM (MEKK2) was 8.32%. It also gave a remaining activity at 10 µM (WNK2) of 71.9%, a remaining activity at 10 µM (FAK/PTK2) of 15.5% and a remaining activity at 10 µM (CDK2/CYCLIN E) of 7.89%. It also gave a remaining activity at 10 µM (CDK2/cyclin A) of 5.14%, a remaining activity at 10 µM (DNA-PK) of 98.2% and an IC50 (AKT3; [2]) of 0.157 µM. It also gave a remaining activity at 10 µM (AKT3; [3]) of 11.4%, an inhibition at 10 µM (AKT3; read-out: inhibition of Akt3) of over 75% and a remaining activity at 10 µM (DMPK) of 76.5%. It also gave a remaining activity at 10 µM (MLCK2/MYLK2) of 27.3%, a remaining activity at 10 µM (CDK1/cyclin A) of 21.3% and a remaining activity at 10 µM (TAOK2/TAO1) of 36.3%. It also gave a remaining activity at 10 µM (BTK) of 6.64%, an IC50 (AKT2; [2]) of 1 µM and a remaining activity at 10 µM (AKT2; [3]) of 19.1%. For the same molecule, the inhibition at 10 µM (AKT2; read-out: inhibition of Akt2) was over 75%, the viability at 24 h, 0.78125 µM (in vitro) was 84.7% and the viability at 24 h, 1.5625 µM (in vitro) was 85.5%. The viability at 24 h, 3.125 µM (in vitro) was 87.6%, the viability at 24 h, 25 µM (in vitro) was 87.9% and the viability at 24 h, 50 µM (in vitro) was 97.2%. It also gave a viability at 72 h, 0.78125 µM (in vitro) of 94.8%, a viability at 72 h, 25 µM (in vitro) of 80.4% and a viability at 72 h, 50 µM (in vitro) of 70.1%. The remaining activity at 10 µM (FER) was 0.37%, the IC50 (AKT1; [2]) was 0.461 µM and the remaining activity at 10 µM (AKT1; [3]) was 23.7%. It also gave an inhibition at 10 µM (AKT1; read-out: inhibition of Akt1) of over 75%, a remaining activity at 10 µM (P38d/MAPK13) of 74.7% and a remaining activity at 10 µM (FES/FPS) of 2.77%. It also gave a remaining activity at 10 µM (LIMK2) of 67.4%.

— publication PMC9569420 (Communications Biology, 2022)
